Experimental data from US20240082406A1, “BENZOHETEROCYCLE SUBSTITUTED TETRAHYDROISOQUINOLINE COMPOUND” (SHANGHAI JEMINCARE PHARMACEUTICAL CO., LTD, priority 2020, published 2024).
Where a name gives a salt, the structure may show the parent alone.

Tests used:
NHE3 [1] = biological target: T1, NHE3 (UniProt P48764); assay: Cell-based NHE3 activity under persistent conditions (60 min pre-incubation, compound removed); set-up: species or system Rat or Human; conditions: opossum kidney cells expressing NHE3, read-out: Cell-based NHE3 inhibition IC50 (uM) under persistent conditions
T1 sequence (P48764 1-834): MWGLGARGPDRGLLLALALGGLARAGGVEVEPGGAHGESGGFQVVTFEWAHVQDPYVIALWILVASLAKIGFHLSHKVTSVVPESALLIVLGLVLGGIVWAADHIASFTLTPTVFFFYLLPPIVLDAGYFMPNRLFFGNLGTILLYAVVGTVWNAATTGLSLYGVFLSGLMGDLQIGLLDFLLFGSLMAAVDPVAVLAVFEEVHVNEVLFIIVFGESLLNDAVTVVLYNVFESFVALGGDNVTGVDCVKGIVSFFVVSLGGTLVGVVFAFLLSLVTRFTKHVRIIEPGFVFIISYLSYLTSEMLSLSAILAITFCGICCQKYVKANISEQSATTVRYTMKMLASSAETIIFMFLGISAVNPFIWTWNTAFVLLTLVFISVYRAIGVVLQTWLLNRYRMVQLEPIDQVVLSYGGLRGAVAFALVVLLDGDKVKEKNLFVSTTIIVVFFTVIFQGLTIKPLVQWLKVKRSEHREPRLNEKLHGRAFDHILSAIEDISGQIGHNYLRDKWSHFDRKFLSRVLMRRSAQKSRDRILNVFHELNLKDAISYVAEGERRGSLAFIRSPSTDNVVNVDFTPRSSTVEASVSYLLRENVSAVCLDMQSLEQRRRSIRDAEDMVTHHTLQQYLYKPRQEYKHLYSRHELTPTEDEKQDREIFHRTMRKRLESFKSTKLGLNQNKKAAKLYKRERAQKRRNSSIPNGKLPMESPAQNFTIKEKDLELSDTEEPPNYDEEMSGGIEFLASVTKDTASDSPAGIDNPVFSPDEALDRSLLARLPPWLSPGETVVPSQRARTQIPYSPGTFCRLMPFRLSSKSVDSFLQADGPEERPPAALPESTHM
Text: (§1) Opossum kidney (OK) cells were obtained from ATCC and cultured and expanded according to its instructions. OK monoclonal stable cell lines expressing the Rat NHE3 (Gene Bank registration number: M85300) protein and OK monoclonal stable cell lines expressing the Human NHE3 (Gene Bank registration number: NM_004174.1) protein were constructed by lentivirus infection.
The general procedure of the cell-based NHE3 activity assay under persistent conditions (persistent inhibition) was: Rat NHE3 OK monoclonal cells or Human NHE3 OK monoclonal cells were inoculated into 384-well plates and grew overnight. The medium was aspirated from the wells and the cells were washed twice with FLIPR buffer (Hank's BSS 1×, 20 mM HEPES, 1% BSA) followed by the addition of Na-HEPES buffer containing […] test compound (100 mM NaCl, 50 mM HEPES, 10 mM glucose, 5 mM KCl, 2 mM CaCl2, 1 mM MgCl2, pH 7.4) and incubated for 60 minutes at room temperature. The compounds were aspirated from the wells and incubated with FLIPR buffer (Hank's BSS 1×, 20 mM HEPES, 1% BSA) containing […] BCECF-AM (Invitrogen) for 45 minutes at room temperature. Subsequently, […] of 200 mM NH4Cl-HEPES buffer (Hank's BSS 1×, 20 mM HEPES, 200 mM NH4Cl) was added and incubated for 15-20 minutes at room temperature. The cells were washed twice with 20 mM NH4Cl-HEPES buffer (Hank's BSS 1×, 20 mM HEPES, 20 mM […]). […] Ratio=fluorescence value (λex 490 nm)/fluorescence value (λex 440 nm) was set, the average value of the Ratio difference between the end time and the start time between the duplicate wells was calculated, the average value and the concentration value of the compound were drawn, and the dose-response-inhibition (four parameters) equation was used to estimate EC50 value by GraphpadPrism.

NHE3 [2] = biological target: T1, NHE3; assay: Cell-based NHE3 activity under transient conditions (BCECF-AM intracellular pH, FLIPR); set-up: species or system Rat or Human; conditions: opossum kidney cells expressing NHE3, read-out: Cell-based NHE3 inhibition IC50 (uM) under transient conditions
Text: as §1
The general procedure of the cell-based NHE3 activity experiments under transient conditions (transient inhibition) was based on an adaptation method of the pH-sensitive dye method originally reported by Tisen (Proc. Natl. Acad. Sci. USA) (1984) 81(23):7436-7440) to measure rat NHE3-mediated Na+-dependent reverse H+ transport, and was optimized according to the instructions “Measuring Intracellular pH With the FLIPR and FLIPR 384 Fluorometric Imaging Plate Reader Systems” published by Molecular Devices. The specific method was: Rat NHE3 OK monoclonal cells or Human NHE3 OK monoclonal cells were inoculated into 384-well plates and grew overnight. The medium was aspirated from the wells and the cells were washed twice with FLIPR buffer (Hank's BSS 1×, 20 mM HEPES, 1% BSA) followed by incubation with FLIPR buffer (Hank's BSS 1×, 20 mM HEPES, 1% BSA) containing […] BCECF-AM (Invitrogen) for 45 min at room temperature. Subsequently, […] of 200 mM NH4Cl-HEPES buffer (Hank's BSS 1×, 20 mM HEPES, 200 mM NH4Cl) was added and the cells were incubated for 15-20 minutes at room temperature. Cells were washed twice with 20 mM NH4Cl-HEPES buffer (Hank's BSS 1×, 20 mM HEPES, 20 mM NH4Cl). NHE3-mediated pH sensitization in cells was normalized by addition of containing 0.4 mM amiloride (EIPA) and […] test compound or Na-HEPES buffer (100 mM NaCl, 50 mM HEPES, 10 mM glucose, 5 mM KCl, 2 mM CaCl2), 1 mM MgCl2, pH 7.4) and monitoring of BCECF-AM fluorescence at λem 535 nm excitated by λex 440 nm and λex 490 nm respectively. Ratio=fluorescence value (λex 490 nm)/fluorescence value (λex 440 nm) was set, the average value of the Ratio difference between the end time and the start time between the duplicate wells was calculated, the average value and the concentration value of the compound were drawn, and Graphpad Prism software was used to estimate IC50 value.

IC50 (NHE3 [1]) | IC50 (NHE3 [2]; embodiment compounds) | IC50 (NHE3 [2]; intermediates) | SMILES
0.5 µM | 0.43 µM |  | CN1Cc2c(Cl)cc(Cl)cc2C(c2ccc3c(c2)S(=O)(=O)N(CCOCCOCCNC(=O)NCCCCNC(=O)NCCOCCOCCN2Cc4ccc(C5CN(C)Cc6c(Cl)cc(Cl)cc65)cc4S2(=O)=O)C3)C1 (stereo not shown) [Embodiment A1]
 | 3.14 µM |  | CN1Cc2c(Cl)cc(Cl)cc2C(c2cccc3c2CN(CCOCCOCCNC(=O)NCCCCNC(=O)NCCOCCOCCN2Cc4c(C5CN(C)Cc6c(Cl)cc(Cl)cc65)cccc4S2(=O)=O)S3(=O)=O)C1 (stereo not shown) [Embodiment A2]
0.02 µM | 0.52 µM |  | CN1Cc2c(Cl)cc(Cl)cc2C(c2ccc3c(c2)C(=O)N(CCOCCOCCNC(=O)NCCCCNC(=O)NCCOCCOCCN2Cc4ccc(C5CN(C)Cc6c(Cl)cc(Cl)cc65)cc4C2=O)C3)C1 (stereo not shown) [Embodiment B1]
 | 2.05 µM |  | CN1Cc2c(Cl)cc(Cl)cc2C(c2cccc3c2CN(CCOCCOCCNC(=O)NCCCCNC(=O)NCCOCCOCCN2Cc4c(cccc4C4CN(C)Cc5c(Cl)cc(Cl)cc54)C2=O)C3=O)C1 (stereo not shown) [Embodiment B2]
0.41 µM | 0.77 µM |  | CN1Cc2c(Cl)cc(Cl)cc2C(c2ccc3c(c2)C(=O)N(CCOCCOCCNC(=O)NCCCCNC(=O)NCCOCCOCCN2CCc4ccc(C5CN(C)Cc6c(Cl)cc(Cl)cc65)cc4C2=O)CC3)C1 (stereo not shown) [Embodiment B3]
0.45 µM | 0.93 µM |  | CN1Cc2c(Cl)cc(Cl)cc2C(c2ccc3c(c2)CN(CCOCCOCCNC(=O)NCCCCNC(=O)NCCOCCOCCN2Cc4cc(C5CN(C)Cc6c(Cl)cc(Cl)cc65)ccc4C2=O)C3=O)C1 (stereo not shown) [Embodiment B4]
0.57 µM | 0.23 µM |  | CN1Cc2c(Cl)cc(Cl)cc2C(c2ccc3ccn(CCOCCOCCNC(=O)NCCCCNC(=O)NCCOCCOCCn4ccc5ccc(C6CN(C)Cc7c(Cl)cc(Cl)cc76)cc5c4=O)c(=O)c3c2)C1 (stereo not shown) [Embodiment B5]
0.04 µM | 1.05 µM |  | CN1Cc2c(Cl)cc(Cl)cc2C(c2ccc3c(c2)C(=O)N(CCOCCOCCOCCNC(=O)NCCCCNC(=O)NCCOCCOCCCN2Cc4ccc(C5CCCc6ccc(Cl)cc65)cc4C2=O)C3)C1 (stereo not shown) [Embodiment B6]
0.59 µM | 0.22 µM |  | CN1Cc2c(Cl)cc(Cl)cc2C(c2ccc3c(c2)S(=O)(=O)N(CCOCCOCCNC(=O)NCCCCNC(=O)NCCOCCOCCN2CCc4ccc(C5CN(C)Cc6c(Cl)cc(Cl)cc65)cc4S2(=O)=O)CC3)C1 (stereo not shown) [Embodiment C1]
0.05 µM | 0.06 µM |  | CN1Cc2c(Cl)cc(Cl)cc2C(c2ccc3c(c2)S(=O)(=O)N(CCOCCOCCNC(=O)NCCCCNC(=O)NCCOCCOCCN2C=Cc4ccc(C5CN(C)Cc6c(Cl)cc(Cl)cc65)cc4S2(=O)=O)C=C3)C1 (stereo not shown) [Embodiment E1]
0.64 µM | 0.91 µM |  | CN1Cc2c(Cl)cc(Cl)cc2C(c2ccc3c(c2)C(=O)N(CCOCCOCCNC(=O)CN(CCN(CC(=O)O)CC(=O)NCCOCCOCCN2Cc4ccc(C5CN(C)Cc6c(Cl)cc(Cl)cc65)cc4C2=O)CC(=O)O)C3)C1 (stereo not shown) [Embodiment F1]
0.08 µM | 0.62 µM |  | CN1Cc2c(Cl)cc(Cl)cc2C(c2ccc3c(c2)C(=O)N(CCOCCOCCOCCNC(=O)CN(CCN(CC(=O)O)CC(=O)NCCOCCOCCOCCN2Cc4ccc(C5CN(C)Cc6c(Cl)cc(Cl)cc65)cc4C2=O)CC(=O)O)C3)C1 (stereo not shown) [Embodiment F2]
0.1 µM | 0.93 µM |  | CN1Cc2c(Cl)cc(Cl)cc2C(c2ccc3c(c2)C(=O)N(CCOCCOCCNC(=O)O[C@@H]2COC4C2OC[C@H]4OC(=O)NCCOCCOCCN2Cc4ccc(C5CN(C)Cc6c(Cl)cc(Cl)cc65)cc4C2=O)C3)C1 (stereo partly shown) [Embodiment G1]
0.04 µM | 0.91 µM |  | CN1Cc2c(Cl)cc(Cl)cc2C(c2ccc3c(c2)C(=O)N(CCOCCOCCNC(=O)NC2CCC(NC(=O)NCCOCCOCCN4Cc5ccc(C6CN(C)Cc7c(Cl)cc(Cl)cc76)cc5C4=O)CC2)C3)C1 (stereo not shown) [Embodiment H1]
0.06 µM | 0.48 µM |  | CN1Cc2c(Cl)cc(Cl)cc2C(c2ccc3c(c2)C(=O)N(CCOCCOCCNC(=O)Nc2ccc(NC(=O)NCCOCCOCCN4Cc5ccc(C6CN(C)Cc7c(Cl)cc(Cl)cc76)cc5C4=O)cc2)C3)C1 (stereo not shown) [Embodiment H2]

Second part, the molecule before the results:

SMILES | IC50 (NHE3 [1]) | IC50 (NHE3 [2]; embodiment compounds) | IC50 (NHE3 [2]; intermediates)
CN1Cc2c(Cl)cc(Cl)cc2C(c2ccc3cn(CCOCCOCCNC(=O)NCCCCNC(=O)NCCOCCOCCn4cc5ccc(C6CN(C)Cc7c(Cl)cc(Cl)cc76)cc5n4)nc3c2)C1 (stereo not shown) [Embodiment D1-P1] | 0.02 µM | 0.28 µM | 
CN1Cc2c(Cl)cc(Cl)cc2C(c2ccc3cnn(CCOCCOCCNC(=O)NCCCCNC(=O)NCCOCCOCCn4ncc5ccc(C6CN(C)Cc7c(Cl)cc(Cl)cc76)cc54)c3c2)C1 (stereo not shown) [Embodiment D1-P2] | 3.61 µM | 2.33 µM | 
CN1Cc2c(Cl)cc(Cl)cc2C(c2ccc3cnn(CCOCCOCCOCCNC(=O)NCCCCNC(=O)NCCOCCOCCOCCn4ncc5ccc(C6CN(C)Cc7c(Cl)cc(Cl)cc76)cc54)c3c2)C1 (stereo not shown) [Embodiment D2-P2 hydrochloride salt] | 0.12 µM | 0.27 µM | 
CN1Cc2c(Cl)cc(Cl)cc2C(c2ccc3c(c2)S(=O)(=O)NC3)C1 (stereo not shown) [Intermediate A1-13] |  |  | 0.6 µM
CN1Cc2c(Cl)cc(Cl)cc2C(c2cccc3c2CNS3(=O)=O)C1 (stereo not shown) [Intermediate A2-13] |  |  | 1.63 µM
CN1Cc2c(Cl)cc(Cl)cc2C(c2ccc3c(c2)C(=O)NC3)C1 (stereo not shown) [Intermediate B1-6] |  |  | 0.53 µM
CN1Cc2c(Cl)cc(Cl)cc2C(c2cccc3c2CNC3=O)C1 (stereo not shown) [Intermediate B2-6] |  |  | 0.17 µM
CN1Cc2c(Cl)cc(Cl)cc2C(c2ccc3c(c2)CNC3=O)C1 (stereo not shown) [Intermediate B4-6] |  |  | 0.79 µM
CN1Cc2c(Cl)cc(Cl)cc2C(c2ccc3cc[nH]c(=O)c3c2)C1 (stereo not shown) [Intermediate B5-6] |  |  | 1.69 µM
CN1Cc2c(Cl)cc(Cl)cc2C(c2ccc3c(c2)S(=O)(=O)NCC3)C1 (stereo not shown) [Intermediate C1-11] |  |  | 1.24 µM
CN1Cc2c(Cl)cc(Cl)cc2C(c2ccc3cn[nH]c3c2)C1 (stereo not shown) [Intermediate D1-7] |  |  | 1.44 µM
CN1Cc2c(Cl)cc(Cl)cc2C(c2ccc3c(c2)S(=O)(=O)NC=C3)C1 (stereo not shown) [Intermediate E1-9] |  |  | 3.17 µM
